Laboratory results from patent US11752175B2, “Compositions and methods for glaucoma” (AUFBAU MEDICAL INNOVATIONS LIMITED, priority 2018, dated 2023).

System: glaucoma-associated-EV-complex in POAG patient's aqueous humor
Test: Treating POAG aqueous humor samples with bimatoprost, EDC fixation, negative staining and TEM imaging
Design: species or system human
Excerpt: Methods for treating POAG aqueous humor samples with bimatoprost, and fixation of fluid with EDC, negative staining and TEM imaging. We sought to determine the effect of bimatoprost on EVs in aqueous humor of patients with glaucoma. To do this, we diluted the POAG aqueous humor sample with tris buffered saline (1:10 dilution) and added 1:1 volume of diluted POAG sample with either tris buffered saline (control) or bimatoprost. Lumigan was obtained directly from the dispensing bottle and was NOT diluted. 10 ul of POAG sample was mixed with 10 ul of TBS or 10 ul POAG sample was mixed with 10 ul of undiluted Lumigan. The tubes were then incubated in a thermocycler PCR machine and were allowed to sit for 72 hours at 37° C. The samples were then diluted (1:10). Next, we fixed with EDC on an electron microscopy grid using the following protocol. For 1 mls of EDC/ETT solution in 0.1 M 1-Methylimidazole buffer (pH 8.0). • 1. EDC-HCl powder should be stored at −20° C. under argon. To avoid condensation of humidity, only open bottles after they reached room temperature, i.e. take the bottle out of freezer 1 h before weighing out sample. • 2. EDC/5-ETT solution should be made at most 1 h prior to use. • 3. Pipette 5.76 ml of 0.1 M 1-Methylimidazole buffer (pH 8.0) into a 15 ml tube, vortex vigorously. • 4. Carefully spoon out the 0.078 g of ETT found in the “G” group, onto a piece of paper. Carefully pour the 0.078 g into the tube. • 5. Using the pH paper and pipet to check to be pH 8.0 • 6. Use a weighing paper to measure out 0.12 g of EDC. Carefully pour into the tube. Vortex vigorously. • 7. Discard unused solution. • 8. Using the pH paper and pipet to check to be pH 8.0 Poly L-lysine grids, EDC fixation, Glut-fixation, UA stain. • 1. Use formvar coated grids. • 2. Place them facing formvar side down to poly-lysine drops and let them sit for 5-10 min. • 3. Then you will withdraw the Poly-L-lysine • 4. Fasten down a piece of parchment paper to a 100 mm dish with tape or weight. Place grid down on parchment paper. Mix EDC solution with EVs • 1. Mix 2.5 ul of (Cold) EVs with 5 ul of (Cold) EDC solution in 1.5 ml siliconized tube. • 2. In the cold room, apply 5 μl sample (Aqueous humor) to the grid and wait 15 minutes to dry and for the EVs to settle to the bottom of the grid. • 3. Place in a humidified chamber and incubate at […] for at least 3 hours. Secondary Fixation with Glut • 1. Remove EDC-EV solution from the sample using a pipette. • 2. Fix with Glut, add 2-5 ul of glut fix and wait for 5 min • 3. Remove Glut with Pipet or lens paper Rinse Glut and EDC • 1. Apply water bubble to grid for 5 min • 2. Remove water bubble with pipette • 3. Add 5 ul of uranyl acetate onto grid (1 drop, blotting after the drop) • 4. Let grid dry, and place in grid box • 5. Take off stain with pipette Samples were then imaged with TEM. Treating large EV complexes with Bimatoprost breaks up the EV-complex, when compared to controls. To determine if glaucoma-associated-EV-aggregates visualized using the EDC fixation method were indeed a potential mediator of POAG, we hypothesized that treating it with a known glaucoma medication would change the morphology of the glaucoma-associated-EV-aggregates. Therefore, we opted to use Bimatoprost (lumigan), which is a ocular hypotensive agent that lowers IOP in normal, ocular hypertensive, and glaucomatous eyes. […]

## CCNC(=O)CCC/C=C\C[C@@H]1[C@@H](/C=C/[C@@H](O)CCc2ccccc2)[C@H](O)C[C@@H]1O [bimatoprost]
POAG aqueous humor samples treated with bimatoprost (FIG. 11 c-d)
  evidence of large extracellular matrix or glaucoma-associated-EV-aggregates in TEM photographs: no evidence of large extracellular matrix nor glaucoma-associated-EV-aggregates
POAG patient's aqueous humor, first subject (FIG. 11), undiluted Lumigan 1:1 with 1:10 diluted sample, 37° C. for 72 hours, TEM
  number of glaucoma-associated-EV-complex, compared to POAG sample with placebo treatment: substantial reduction
Aqueous humor of a patient with POAG (FIG. 11), TEM
  size of POAG-associated EV complexes, compared to untreated glaucoma samples: reduces the size
Aqueous humor of second subject with glaucoma (FIG. 13), TEM
  size of POAG-associated EV complexes, compared to control-treated glaucoma samples: reduces the size
Second human subject with glaucoma (FIG. 12-13), 37° C. for 72 hours, TEM
  number of glaucoma-associated-EV-complexes, compared to placebo (buffered saline): substantial reduction
